Measured values: patent US7067491B2, “Heterocyclic compounds having elastase-inhibiting activity and intermediates thereof” (Dainippon Pharmaceutical Co., Ltd., priority 2002, dated 2006)

Legend:
ICR mice = assay: Acute toxicity; type: in vivo; conditions: male ICR mice (5 mice), 300 mg/kg orally, after 24 hours
Description: Experiment 5: Acute Toxicity
The compound of the present invention (each compound of Example 10, Example 11, Example 15, Example 25, and Example 40) was suspended in 0.5% tragacanth gum and the suspension was orally administered to 7 weeks old, male ICR mice (5 mice) at 300 mg/kg.

[1] = test system: pulmonary hemorrhage induced by human neutrophil elastase (HNE); assay: Inhibitory activity on pulmonary hemorrhage induced by human neutrophil elastase (HNE); type: in vivo; conditions: hamster; for ED50: Homo sapiens, Neutrophil, po; for Pulmonary hemorrhage inhibitory rate (%): dose 3 mg/kg orally, 30 minutes prior to HNE
Source text: Experiment 3: Inhibitory Activity on Pulmonary Hemorrhage Induced by Human Neutrophil Elastase (HNE)
This experiment tested on in vivo efficacy of the compound of the present invention. When human neutrophil elastase is intratracheally administered to a hamster, the pulmonary hemorrhage is induced. A definite time later after administration of the elastase, in the bronchoalveolar lavage fluid by washing lung via trachea, hemoglobin is detected.
Hamsters (Syrian strain, 7–10 weeks old male) were divided into groups consisting of 3 to 6, and each group was treated as follows:
(A) A Group to which the Compound of the Present Invention was not Administered (Disease Control):
Physiological saline solution (0.2 ml) in which 25 unit of human neutrophil elastase (Elastin Product Co., Inc.) was dissolved was intratracheally administered to a hamster to induce the pulmonary hemorrhage. One hour later after administration of elastase, the hamsters were sacrificed by exsanquination, and alveoli were transtracheally washed twice with physiological saline (2.5 ml), and the hemoglobin concentration in the bronchoalveolar lavage fluid (5 ml) was determined by measuring the absorbance at 414 nm.
(B) A Group to which the Compound of the Present Invention was Administered:
A fixed amount of the compound of the present invention was dissolved in dimethyl sulfoxide (DMSO), and thereto was added 0.5% tragacanth gum to prepare a suspension. The suspension was orally administered to a hamster, 30 minutes prior to the administration of human neutrophil elastase (HNE) (final concentration of DMSO, 1%), and then, human neutrophil elastase was administered in the same manner as the above method (A). After 1 hour, the concentration of hemoglobin in the bronchoalveolar lavage fluid was determined in the same manner as the above method (A).
The hemorrhage inhibition activity of the compound of the present invention is represented as the hemorrhage inhibiting rate in the following formula.
The dose of the compound of the present invention to be required to achieve 50% inhibition of pulmonary hemorrhage (i.e., ED50) was calculated based on the administration dose-hemorrhage inhibiting rate curve.
As a comparative example, the same experiment was also carried out on a comparative compound used in Experiment 1.
Some of the compounds of the present invention were compared with the comparative compound on the hemorrhage inhibitory rate at the dose of 3 mg/kg.

[2] = biological target: T1, human neutrophil elastase (Homo sapiens, UniProt P08246); assay: Inhibitory activity on human neutrophil elastase (HNE) in vitro; type: biochemical; conditions: human neutrophil elastase 0.2 U/ml, substrate MeO-Suc-Ala-Ala-Pro-Val-pNA 0.5 mM, 37° C., pH 7.5
T1 construct: purchased Elastine Product Co., Inc
T1 sequence (P08246 30-267): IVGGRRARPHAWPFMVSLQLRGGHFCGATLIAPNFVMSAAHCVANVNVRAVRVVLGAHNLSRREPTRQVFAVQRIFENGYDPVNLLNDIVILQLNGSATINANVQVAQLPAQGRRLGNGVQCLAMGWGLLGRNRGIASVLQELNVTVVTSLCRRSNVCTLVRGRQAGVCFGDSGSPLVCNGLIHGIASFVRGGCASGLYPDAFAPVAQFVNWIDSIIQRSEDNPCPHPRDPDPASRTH
Description: Experiment 1: Inhibitory Activity on Human Neutrophil Elastase (HNE)
The inhibitory activity of the compound of the present invention in vitro on human neutrophil elastase was examined by this experiment.
To 100 mM of HEPES {[N-(2-hydroxyethyl)piperazine-N′-(2-ethanesulfonic acid)], pH 7.5}buffer solution containing 1M NaCl and 0.001% Brij-35 (polyoxyethylene lauryl ether) were added human neutrophil elastase (final concentration: 0.2 U/ml, Elastine Product Co., Inc.) and the compound of the present invention (dissolved in 10% dimethyl sulfoxide; final concentration: 10^−10˜3×10^−3 M). The mixture was pre-incubated for 3 minutes at 37° C. Thereto was added MeO-Suc-Ala-Ala-Pro-Val-pNA (methoxysuccinyl-alanyl-alanyl-prolyl-valyl-p-nitroanilide (Sigma Chemical Co.)) as a substrate to give the final concentration of 0.5 mM, and the reaction was initiated. Under this condition, the producing rate of the reaction product, p-nitroanilide (pNA) at 37° C. was estimated by measuring the absorbance at 404 nm for 3 minutes.
The inhibitory activity of the compound of the present invention against human neutrophil elastase (HNE) is calculated according to the following formula.
The concentration of the compound of the present invention to be required to achieve 50% HNE inhibition (i.e., IC50) was calculated based on the concentration-inhibitory rate curve of the compound of the present invention.
As a comparative compound, N-[(1S)-2-((2S)-2-{N-[(1S)-3,3,3-trifluoro-1-(methylethyl)-2-oxopropyl]carbamoyl}pyrrolidinyl)-1-(methylethyl)-2-oxoethyl](imidazol-4-yl)carboxamide was used, and the same assay was carried out. The planar structure of this compound was the same as one of compound (22) disclosed in J. Med. Chem., 1997, 40, 1876–1885.

[3] = biological target: T2, porcine pancreas elastase (Sus scrofa, UniProt P00772); assay: Inhibitory activity against porcine pancreas elastase; type: biochemical; conditions: porcine pancreas elastase 40 ng/ml, substrate Suc-Ala-Ala-Ala-pNA 2.5 mM
T2 construct: purchased Elastin Products Co., Inc
T2 sequence (P00772 27-266): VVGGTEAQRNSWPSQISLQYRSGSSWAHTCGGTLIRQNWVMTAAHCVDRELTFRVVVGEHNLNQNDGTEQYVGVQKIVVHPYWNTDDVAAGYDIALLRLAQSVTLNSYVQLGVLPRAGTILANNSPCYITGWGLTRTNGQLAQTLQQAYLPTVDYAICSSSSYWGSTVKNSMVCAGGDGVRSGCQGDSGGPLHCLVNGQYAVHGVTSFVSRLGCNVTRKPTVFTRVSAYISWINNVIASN
Description: Experiment 2: Inhibitory Activity Against Porcine Pancreas Elastase
The inhibitory activity was measured in the same manner as experiment 1, except for using porcine pancreas elastase (Elastin Products Co., Inc., final concentration 40 ng/ml) as a target enzyme and Suc-Ala-Ala-Ala-pNA (succinyl-alanyl-alanyl-alanyl-p-nitroanilide, Peptide Research, final concentration 2.5 mM) as a substrate.

[4] = orally administered 30 minutes prior to intratracheal HNE, hemoglobin in bronchoalveolar lavage fluid after 1 hour

IC50 [2] [nM]	IC50 [3] [nM]	Structure (SMILES)	Acute toxicity: death or not (ICR mice)	ED50 [1, 4] [mg/kg]	Pulmonary hemorrhage inhibitory rate (%) [1] [%]	Inhibitory activity on pulmonary hemorrhage ED50 [1, 4] [mg/kg]
13	155	Cc1nnsc1C(=O)N[C@H](C(=O)N1CCC[C@H]1C(=O)N[C@H](C(=O)C(F)(F)F)C(C)C)C(C)C [Example 3, N-[(1S)-2-((2S)-2-{N-[(1S)-3,3,3-trifluoro-1-(methylethyl)-2-oxopropyl]carbamoyl}pyrrolidinyl)-1-(methylethyl)-2-oxoethyl]-(4-methyl-1,2,3-thiadiazol-5-yl)carboxamide]	–	1.6	–	–
8.4	–	Cc1c(C(=O)N[C@H](C(=O)N2CCC[C@H]2C(=O)N[C@H](C(=O)C(F)(F)F)C(C)C)C(C)C)cnn1-c1ccccc1F [Example 45]	–	–	58	–
8.1	215	CC(C)[C@H](NC(=O)c1noc2ccccc12)C(=O)N1CCC[C@H]1C(=O)N[C@H](C(=O)C(F)(F)F)C(C)C [Example 2, N-[(1S)-2-((2S)-2-{N-[(1S)-3,3,3-trifluoro-1-(methylethyl)-2-oxopropyl]carbamoyl}pyrrolidinyl)-1-(methylethyl)-2-oxoethyl](benzo [d]isoxazol-3-yl)carboxamide]	–	0.86	–	–
17	154	Cc1noc(C)c1C(=O)N[C@H](C(=O)N1CCC[C@H]1C(=O)N[C@H](C(=O)C(F)(F)F)C(C)C)C(C)C [Example 1, N-[(1S)-2-((2S)-2-{N-[(1S)-3,3,3-trifluoro-1-(methylethyl)-2-oxopropyl]carbamoyl}pyrrolidinyl)-1-(methylethyl)-2-oxoethyl](3,5-dimethylisoxazol-4-yl)carboxamide]	–	2.6	–	–
–	–	CC(C)[C@H](NC(=O)c1cc(C(C)(C)C)n(C)n1)C(=O)N1CCC[C@H]1C(=O)N[C@H](C(=O)C(F)(F)F)C(C)C [Example 25, N-[(1S)-2-((2S)-2-{N-[(1S)-3,3,3-trifluoro-1-(methylethyl)-2-oxopropyl]carbamoyl}pyrrolidinyl)-1-(methylethyl)-2-oxoethyl]-(5-tert-butyl-1-methylpyrazol-3-yl)carboxamide]	all were alive	–	–	–
15	–	Cc1c(C(=O)N[C@H](C(=O)N2CCC[C@H]2C(=O)N[C@H](C(=O)C(F)(F)F)C(C)C)C(C)C)cnn1-c1ccc(C(F)(F)F)cc1 [Example 47, N-[(1S)-2-((2S)-2-{N-[(1S)-3,3,3-trifluoro-1-(methylethyl)-2-oxopropyl]carbamoyl}pyrrolidinyl)-1-(methylethyl)-2-oxoethyl]-{5-methyl-1-[4-(trifluoromethyl)phenyl]pyrazol-4-yl}carboxamide]	–	–	60	–
8.3	–	Cc1c(C(=O)N[C@H](C(=O)N2CCC[C@H]2C(=O)N[C@H](C(=O)C(F)(F)F)C(C)C)C(C)C)cnn1-c1ccc(Cl)cc1 [Example 38, N-[(1S)-2-((2S)-2-{N-[(1S)-3,3,3-trifluoro-1-(methylethyl)-2-oxopropyl]carbamoyl}pyrrolidinyl)-1-(methylethyl)-2-oxoethyl]-[1-(4-chlorophenyl)-5-methylpyrazol-4-yl]carboxamide]	–	–	63	–
17	–	CCc1noc(C)c1C(=O)N[C@H](C(=O)N1CCC[C@H]1C(=O)N[C@H](C(=O)C(F)(F)F)C(C)C)C(C)C [Example 4, N-[(1S)-2-((2S)-2-{N-[(1S)-3,3,3-trifluoro-1-(methylethyl)-2-oxopropyl]carbamoyl}pyrrolidinyl)-1-(methylethyl)-2-oxoethyl]-(3-ethyl-5-methylisoxazol-4-yl)carboxamide]	–	2.5	–	–

Structure (SMILES)	IC50 [2] [nM]	IC50 [3] [nM]	Acute toxicity: death or not (ICR mice)	ED50 [1, 4] [mg/kg]	Pulmonary hemorrhage inhibitory rate (%) [1] [%]	Inhibitory activity on pulmonary hemorrhage ED50 [1, 4] [mg/kg]
COc1cc(C(=O)N[C@H](C(=O)N2CCC[C@H]2C(=O)N[C@H](C(=O)C(F)(F)F)C(C)C)C(C)C)on1 [Example 11, N-[(1S)-2-((2S)-2-{N-[(1S)-3,3,3-trifluoro-1-(methylethyl)-2-oxopropyl]carbamoyl}pyrrolidinyl)-1-(methylethyl)-2-oxoethyl]-(3-methoxyisoxazol-5-yl)carboxamide]	27	–	all were alive	1.5	–	–
Cc1cc(C(=O)N[C@H](C(=O)N2CCC[C@H]2C(=O)N[C@H](C(=O)C(F)(F)F)C(C)C)C(C)C)no1 [Example 15, N-[(1S)-2-((2S)-2-{N-[(1S)-3,3,3-trifluoro-1-(methylethyl)-2-oxopropyl]carbamoyl}pyrrolidinyl)-1-(methylethyl)-2-oxoethyl]-(5-methylisoxazol-3-yl)carboxamide]	24	–	all were alive	0.62	–	–
CC(C)[C@H](NC(=O)c1c[nH]cn1)C(=O)N1CCC[C@H]1C(=O)N[C@H](C(=O)C(F)(F)F)C(C)C [Comparative compound, N-[(1S)-2-((2S)-2-{N-[(1S)-3,3,3-trifluoro-1-(methylethyl)-2-oxopropyl]carbamoyl}pyrrolidinyl)-1-(methylethyl)-2-oxoethyl](imidazol-4-yl)carboxamide, reference compound]	78	–	–	–	18	>10
COc1ccc(-n2ncc(C(=O)N[C@H](C(=O)N3CCC[C@H]3C(=O)N[C@H](C(=O)C(F)(F)F)C(C)C)C(C)C)c2C)cc1 [Example 40, N-[(1S)-2-((2S)-2-{N-[(1S)-3,3,3-trifluoro-1-(methylethyl)-2-oxopropyl]carbamoyl}pyrrolidinyl)-1-(methylethyl)-2-oxoethyl]-[5-methyl-1-(4-methoxyphenyl)pyrazol-4-yl]carboxamide]	8.4	–	all were alive	–	70	–
Cc1c(C(=O)N[C@H](C(=O)N2CCC[C@H]2C(=O)N[C@H](C(=O)C(F)(F)F)C(C)C)C(C)C)cnn1-c1ccccc1 [Example 10, N-[(1S)-2-((2S)-2-{N-[(1S)-3,3,3-trifluoro-1-(methylethyl)-2-oxopropyl]carbamoyl}pyrrolidinyl)-1-(methylethyl)-2-oxoethyl]-(5-methyl-1-phenylpyrazol-4-yl)carboxamide]	10	–	all were alive	1.1	–	–
